This data set is described as follows: recombinant UMI read abundance after kanamycin selection (control-corrected) (log10(CPM+1)); higher = more efficient recombination; extreme values may be limits of the assay; sequences stand for … in AGTGCAGAGAAAATCGGCCAGTTTTCTCTGCCTGCAGTCCGCATGCCGTGGGACCCCTTGGGTTCTAACCTGTTGCCTAGATTTATGCAGCGGACTGCCTTTCTCCCAAAGTGATAAACCGG…AGGTTGGTTTCACT; site = the 11-nt donor. The method in brief: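 Pooled Escherichia coli screen of donor and donor-binding-loop pairs for the IS621 bridge recombinase. Each pair sits with a 12-nt UMI on a plasmid carrying a promoterless kanamycin gene. The library was co-electroporated with a target plasmid encoding a fixed target and T7-inducible recombinase, then plated with IPTG (0.07 mM) plus kanamycin, or unselected, each in two replicates. Recombinant UMIs were PCR-amplified across the donor–target junction and sequenced. Counts became CPM, averaged over replicates, scaled by control-derived factors and reported as log10(CPM+1).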
With “CCGCTTACATGGACCGGTTTTCCCGGTAATCCGTATTTGGA (site CCGCTTACTTC)”, the “recombinant UMI read abundance (log10)” value stood at 0.539.

On to “CCGGACCCATGGACCGGTTTTCCCGGTAATCCGTATTTGTT (site CCGGACCCTAA)”, for which the “recombinant UMI read abundance (log10)” value worked out at 0.0191.

On to “CCGGCACCATGGACCGGTTTTCCCGGTAATCCGTATTTGAT (site CCGGCACCTAT)”, for which the “recombinant UMI read abundance (log10)” value was 0.00703.

Regarding “CCGGCATCATGGACCGGTTTTCCCGGTAATCCGTATTTGCG (site CCGGCATCTCG)”, the “recombinant UMI read abundance (log10)” value stood at 0.

In the case of “CCGGCCGCATGGACCGGTTTTCCCGGTAATCCGTATTTGCC (site CCGGCCGCTGG)”, the “recombinant UMI read abundance (log10)” value is 0.

Consider “CCGGGGCCATGGACCGGTTTTCCCGGTAATCCGTATTTGGT (site CCGGGGCCTAC)”, for which the “recombinant UMI read abundance (log10)” value came out at 0.0146.

On to “CCGGGTCCATGGACCGGTTTTCCCGGTAATCCGTATTTGCA (site CCAGGTCCTTG)”, for which the “recombinant UMI read abundance (log10)” value amounted to 0.

Consider “CCGGGTCCATGGACCGGTTTTCCCGGTAATCCGTATTTGCA (site CCCGGTCCTTG)”, for which the “recombinant UMI read abundance (log10)” value was 0.

For the sequence “CCGGGTCCATGGACCGGTTTTCCCGGTAATCCGTATTTGCA (site CCGGGTCCTTG)”, the “recombinant UMI read abundance (log10)” value came to 0.00309.

Turning to “CCGGGTCCATGGACCGGTTTTCCCGGTAATCCGTATTTGCA (site CCTGGTCCTTG)”, the “recombinant UMI read abundance (log10)” value worked out at 0.0157.

As for “CCGGTAACATGGACCGGTTTTCCCGGTAATCCGTATTTGCG (site CCGGTAACTCG)”, the “recombinant UMI read abundance (log10)” value worked out at 0.686.

On to “CCGTAACCATGGACCGGTTTTCCCGGTAATCCGTATTTGGT (site CCGTAACCTAC)”, for which the “recombinant UMI read abundance (log10)” value turned out to be 0.

As for “CCGTAGCCATGGACCGGTTTTCCCGGTAATCCGTATTTGCC (site CCATAGCCTGG)”, the “recombinant UMI read abundance (log10)” value came to 0.

Turning to “CCGTAGCCATGGACCGGTTTTCCCGGTAATCCGTATTTGCC (site CCCTAGCCTGG)”, the “recombinant UMI read abundance (log10)” value was 0.

Turning to “CCGTAGCCATGGACCGGTTTTCCCGGTAATCCGTATTTGCC (site CCGTAGCCTGG)”, the “recombinant UMI read abundance (log10)” value turned out to be 0.

As to “CCGTAGCCATGGACCGGTTTTCCCGGTAATCCGTATTTGCC (site CCTTAGCCTGG)”, the “recombinant UMI read abundance (log10)” value was found to be 0.

For “CCGTATACATGGACCGGTTTTCCCGGTAATCCGTATTTGCT (site CCGTATACTAG)”, the “recombinant UMI read abundance (log10)” value was 1.24.

For the sequence “CCGTATACATGGACCGGTTTTCCCGGTAATCCGTATTTGCT (site CCGTCTACTAG)”, the “recombinant UMI read abundance (log10)” value worked out at 0.

As for “CCGTATACATGGACCGGTTTTCCCGGTAATCCGTATTTGCT (site CCGTGTACTAG)”, the “recombinant UMI read abundance (log10)” value amounted to 0.

For the sequence “CCGTATACATGGACCGGTTTTCCCGGTAATCCGTATTTGCT (site CCGTTTACTAG)”, the “recombinant UMI read abundance (log10)” value came to 0.

As to “CCGTATGCATGGACCGGTTTTCCCGGTAATCCGTATTTGAA (site CCGTATGCTTT)”, the “recombinant UMI read abundance (log10)” value was 1.14.

Take “CCGTCCCCATGGACCGGTTTTCCCGGTAATCCGTATTTGCT (site CCGTCCCCTAG)”: the “recombinant UMI read abundance (log10)” value was 0.00559.

As for “CCGTCGACATGGACCGGTTTTCCCGGTAATCCGTATTTGGG (site CAGTCGACTCC)”, the “recombinant UMI read abundance (log10)” value is 0.01.

For the sequence “CCGTCGACATGGACCGGTTTTCCCGGTAATCCGTATTTGGG (site CCGTCGACTCC)”, the “recombinant UMI read abundance (log10)” value is 0.0232.

On to “CCGTCGACATGGACCGGTTTTCCCGGTAATCCGTATTTGGG (site CGGTCGACTCC)”, for which the “recombinant UMI read abundance (log10)” value turned out to be 0.0251.

Regarding “CCGTCGACATGGACCGGTTTTCCCGGTAATCCGTATTTGGG (site CTGTCGACTCC)”, the “recombinant UMI read abundance (log10)” value worked out at 0.

For “CCGTTAACATGGACCGGTTTTCCCGGTAATCCGTATTTGCT (site CCGTTAACTAG)”, the “recombinant UMI read abundance (log10)” value turned out to be 2.18.

As to “CCGTTAACATGGACCGGTTTTCCCGGTAATCCGTATTTGCT (site CCGTTCACTAG)”, the “recombinant UMI read abundance (log10)” value came out at 0.

As for “CCGTTAACATGGACCGGTTTTCCCGGTAATCCGTATTTGCT (site CCGTTGACTAG)”, the “recombinant UMI read abundance (log10)” value stood at 0.00307.

Turning to “CCGTTAACATGGACCGGTTTTCCCGGTAATCCGTATTTGCT (site CCGTTTACTAG)”, the “recombinant UMI read abundance (log10)” value was determined as 0.

“CCGTTAGCATGGACCGGTTTTCCCGGTAATCCGTATTTGTA (site CCGTTAGCTAA)”: the “recombinant UMI read abundance (log10)” value stood at 0.0181.

Take “CCGTTAGCATGGACCGGTTTTCCCGGTAATCCGTATTTGTA (site CCGTTAGCTCA)”: the “recombinant UMI read abundance (log10)” value was determined as 0.00671.

With “CCGTTAGCATGGACCGGTTTTCCCGGTAATCCGTATTTGTA (site CCGTTAGCTGA)”, the “recombinant UMI read abundance (log10)” value came out at 0.

As to “CCGTTAGCATGGACCGGTTTTCCCGGTAATCCGTATTTGTA (site CCGTTAGCTTA)”, the “recombinant UMI read abundance (log10)” value stood at 0.601.

The values are drawn from the supplement of paper PMC11208160.
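Further: IS621 bridge recombinase in Escherichia coli cells against a fixed T5 target plasmid.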
